The text below walks through data of patent publication US11254671B2, “Chemical compounds” (GLAXOSMITHKLINE INTELLECTUAL PROPERTY DEVELOPMENT LIMITED, priority 2017, dated 2022).

The structures appear in SMILES notation.

In assay [1] the test system is phosphorylated Akt at serine 473 (pAKTs473) in primary human lung fibroblasts. In words: Highthroughput phosphorylated Akt (Ser473) in vitro immunoassay (MSD). It is filed as cell-based. The following applies: Fibroblast, 1 h compound, PDGF-BB 10 ng/ml for 10 min, mean of multiple experiments, read-out: mean pIC50, inhibition of pAkt (Ser473) (converted). The text has this:
Highthroughput Phosphorylated Akt (Ser473) In Vitro Immunoassay
Immunoassay to measure effect of test compounds on phosphorylated Akt at serine 473 (pAKTs473) in primary human lung fibroblasts (Lonza Group Ltd, Basel, Switzerland, Catalogue No. CC-2512) using the MesoScale Discovery (MSD) platform to quantify levels of total Akt and pAKTser473.
Human lung fibroblasts were routinely maintained in fibroblast basal medium supplemented with 2% foetal bovine serum (FBS), 0.1% human fibroblast growth factor (FGF)-B, 0.1% insulin, 0.1% GA-100 (Lonza Group Ltd, Basel, Switzerland, Catalogue No. CC-3132) at 37° C. in 5% CO2 according to the manufacturer's protocol.
For the assay, cells were harvested using Trypsin/EDTA, (Lonza Group Ltd, Basel, Switzerland, Catalogue No. CC-5012), at working concentration of 0.025%, resuspended to give 3×10^5 cells/ml and 50 ul/well seeded into 384-well plates (Greiner Group, Kremsmunster, Austria, Catalogue No. 781091) in media containing 0.4% FBS and incubated o/n at 37° C. in 5% CO2.
Test compounds were dissolved in 100% DMSO to give 10 mM stock solutions and serially diluted to generate an 11-point concentration response curve. Compound were further diluted by […] into 384-well V-bottom polypropylene plates (Greiner Group, Kremsmunster, Austria, Catalogue No. 781280) with media containing 0.4% FBS to give 50 μM top compound concentration in 0.5% DMSO.
Compounds were transferred to 384-well plates contacting cells (0.1% DMSO final) and incubated for 1 h at 37° C. in 5% CO2, prior to stimulation with platelet-derived growth factor (PDGF)-BB (R&D Systems, Catalogue No. 220-BB) at 10 ng/ml (final) for 10 min at RT. Cell assay plates were incubated on ice and treated with lysis buffer (Cell Signalling Technology, Catalogue No. 9806) containing protease and phosphatase inhibitors (Thermo Scientific, Catalogue No. 78444) followed by shaking for 30 min at 4° C.
MSD plates (MSD, MA6000 384-well GAR plate, Catalogue No. L21RA-2) were blocked with blocking buffer containing TBS (MSD, Cat. No. R61TX-1) with 0.5% bovine serum albumin (BSA) (Sigma Aldrich, Cat. No. A7906), 0.1% tween-20 (Sigma Aldrich, Catalogue No. P2287) and coated with rabbit-anti-human pAkt (s473) ab (Cell Signalling Technology, Catalogue No. CST #4060) at RT with shaking, followed by washing (×3) with 1×TBS wash reagent containing 0.1% Tween-20. Cell lysates (30 ul) were added and MSD plates centrifuged at 1000 rpm at 4° C. o/n.
Plates were washed with 1×TBS wash buffer (×3), prior to addition of mouse-anti-human-total Akt ab (1 mg/ml) (Upstate (Milipore), Catalogue No. 05-591) in blocking buffer and shaken at RT for 1 h. After washing with 1×TBS wash buffer (×3), plates were incubated with goat-anti-mouse SULFO-TAG detection ab (MSD, Catalogue No. R32AC-1) (1:500 in blocking buffer) for 1 h at RT. Plates were washed with 1×TBS (×3) and read buffer (2×) (MSD, Catalogue No. R92TC-1) added before detecting electrochemiluminescence (MSD Sector Imager 6000).
Data analysis was performed by determining % inhibition values for test compounds relative to the minimum (+PDGF-BB stimulation) and maximum responses (no PDGF-BB stimulation) with non-linear regression analysis to determine IC50 values for test compounds.

The target of a further assay is T1, mTOR (Homo sapiens, UniProt P42345).
T1 construct: capturing of endogenously expressed target proteins from cell extracts by a bead-immobilized capturing ligand; endogenous in cells; host or cells: HuT-78 cells (ECACC 88041901), cell lysate
The experiment in a line: mTOR kinobeads assay (competition-binding assay). The conditions noted are these: HuT-78 cell extract, endogenously expressed mTOR, bead-immobilized capturing ligand; mean of multiple experiments; read-out: mean pIC50, affinity for mTOR (converted). The protocol: The affinity of test compounds for mTOR was determined in the mTOR kinobeads assay. This is a competition-binding assay based on the capturing of endogenously expressed target proteins from cell extracts by a bead-immobilized capturing ligand in presence of the test compound.
HuT-78 cells (European Collection of Authenticated Cell Cultures, 88041901) were cultured according to vendor's instructions. Frozen cell pellets were homogenized in 3× pellet volumes lysis buffer (50 mM Tris-HCl, 0.4% (v/v) Igepal-CA630, 5% glycerol, 150 mM NaCl, 1.5 mMMgCl2, 25 mM NaF, 1 mM sodium vanadate, 1 mM DTT, pH 7.5, supplemented with EDTA-free protease inhibitor tablet (Roche)). The sample was dispersed using a Dounce homogenizer, kept rotating for 30 min at 4° C., and centrifuged for 10 min at 20 000 g at 4° C. The supernatant was centrifuged again for 1 h at 145 000 g. The protein concentration was determined by Bradford assay (BioRad), aliquots were snap frozen in liquid nitrogen and stored at −80° C.
The capturing matrices were generated by derivatizing N-hydroxysuccinimide (NHS) activated Sepharose 4 beads (GE Healthcare) with the functionalized ligands Compound A and Compound C at a ligand density of 5 mM. Remaining NHS-groups were blocked with ethanolamine.
For the mTOR kinobeads assay the matrices were combined in a 1:1 ratio and equilibrated in DP buffer (50 mM Tris-HCl (pH 7.5), 0.4% (v/v) Igepal-CA630, 5% (v/v) glycerol, 150 mM NaCl, 1.5 mM MgCl2, 25 mM NaF, 1 mM Na3VO4, 1 mM dithiothreitol). All steps of the mTOR kinobeads assay were performed at 4° C. or on ice. The cell lysate was diluted with DP buffer to a final concentration of 5 mg/ml and a final detergent concentration of 0.4% (v/v) Igepal-CA630. For the assay 250 μg cell lysate and 2.5 μl capturing matrix per well (final assay volume: 75 μl) were incubated in the presence of test compounds in a 384-well filter plate (MultiScreenHTS HV Filter Plate, 0.45 μm, MZHVNOW50, Merck Millipore). Each plate contained 16 positive (100 μM Compound B) and 16 negative (2% v/v DMSO) control wells. Compounds were tested in a concentration-response applying 1:3 or 1:4 dilution steps for in total 11 data points. DMSO concentration was 2% (v/v). After 2 h incubation on an overhead shaker (Roto-Shake Genie, Scientific Industries Inc.) at 4° C. the non-bound fraction was removed by washing the beads with DP buffer. Proteins retained on the beads were eluted in SDS sample buffer (200 mM Tris (pH 7.4), 250 mM Trizma Base, 4% (w/v) SDS, 20% (v/v) glycerol, 0.01% (w/v) bromophenol blue, 50 mM dithiothreitol) into a collection plate (384 well polypropylene microplate, V-shape, Greiner, 781 280). Eluates were spotted on nitrocellulose membranes (400 nl per spot) using an automated pin-tool liquid transfer (Biomek FX, Beckman). After drying, the membranes were rehydrated in 20% (v/v) ethanol and blocked by incubation with Odyssey blocking buffer (LICOR, 927-40000) for 1 h at room temperature. Blocked membranes were incubated overnight at 25° C. with Odyssey blocking buffer supplemented with a specific anti-mTOR antibody (Cell Signaling, 2972; 1:500) and 0.4% TWEEN-20. Then the membranes were washed in PBST buffer and incubated for 60 minutes at room temperature with the detection antibody (IRDye™ labelled antibody from LI-COR) diluted in Odyssey blocking buffer (LICOR 927-40000) containing 0.2% TWEEN-20. Then the membranes were washed with PBST and finally rinsed twice with PBS buffer to remove residual Tween-20. The membranes were then scanned with the Odyssey® Infrared Imaging System (LI-COR Biosciences). Fluorescence signals were recorded and analyzed according to the instructions of the manufacturer. Concentration response curves were computed with the software Activity Base. All data were normalized to the mean of 16 high (negative control) and 16 low (positive control) control wells on each plate. […]

Assay [2] deals with type I collagen deposition in primary lung fibroblasts. The experiment in a line: Highthroughput type I collagen deposition (scar-in-a-jar) high content screening assay. In kind it is cell-based. The following applies: Homo sapiens, Primary lung fibroblast, 72 h, human pulmonary fibroblasts, TGF-β 1 ng/ml, Ficoll crowding, mean of multiple experiments, read-out: mean pIC50, inhibition of type I collagen deposition (converted). The protocol:
Example 53 Highthroughput Type I Collagen Deposition (Scar-in-a-Jar) High Content Screening Assay
Highthroughput, cellular type I collagen deposition was measured by adapting a published method; scar-in-a-jar (Chen et al., 2009) to primary lung fibroblasts derived from human tissue and combining with high content analysis to permit fluorescent quantification of collagen deposited in the extracellular matrix (ECM). The human biological samples were sourced ethically and their research use was in accord with the terms of the informed consents
Test compounds were dissolved in 100% DMSO to give 10 mM (stocks) and further diluted to give half log dilutions to generate an 11 point concentration response curve. 1 ul was transferred to 384-well plates (Greiner Group, Kremsmunster, Austria, Catalogue No Greine 781280r).
Human pulmonary fibroblasts were maintained in DMEM media (Gibco, Catalogue No 21969) supplemented with 4 mM L-glutamine (Gibco Catalogue No 25030-024) and 10% heat inactivated FBS (Gibco, Catalogue No 10099-141) at 37° C. in 10% CO2. Cells were harvested and resuspended at 4×10^6 cells/ml in a T175 cell culture flask (BD Falcom, Catalogue No: 353112) containing 50 mL of culture media. After 4 days 37° C. in 10% CO2, cells were harvested and seeded at 4000 cells per well (50 μL/well) into 384-well plates (BD Falcon, Catalogue No 353962Greiner) in assay media (0.4% heat inactivated FBS, 4 mM L-glutamine). Plates were sealed with breathable seals (Sigma, Catalogue No. BEM-1). Assay plates were incubated for 72 h at 37° C. in 10% CO2.
Assay media was supplemented with 112.5 mg/ml Ficoll 70 (Sigma, Catalogue No F2878), 75 mg/ml Ficoll 400 (Sigma, Catalogue No F4375) and 50 μg/ml ascorbic acid (Sigma, Catalogue No A8960). 30 μL assay media were added to 1 μl compound (37 μM compound concentration in 1% DMSO). Diluted compounds (10 μL) were transferred to plates containing cells and incubated for 3 h at 37° C. in 10% CO2. Transforming growth factor (TGF)-β (R&D systems, Catalogue No 100-B/CF) was reconstituted to give 10 μg/mL (stock) and further diluted in assay media containing Ficoll and ascorbic acid (1 in 3333). TGF-β was added to cell plates (1 ng/ml final) and cells incubated for 72 h at 37° C. in 10% CO2.
Media was aspirated from cells and 30 μL/well 100% ice-cold methanol added and incubated at RT for 5 min to fix cells. Methanol was aspirated and cells washed with PBS (3×). To block and permeabilise, cells were incubated with PBS containing 1% BSA and 0.1% Triton X 100 for 20 min, followed by PBS wash (3×). Cells were incubated with mouse anti human type I collagen monoclonal antibody (Sigma, Catalogue No C2456) diluted 1:1000 in PBS for 24 h at 4° C. Cells were washed with PBS containing 0.1% Tween-20 (3×) and incubated with secondary alexa fluor 488 goat-anti-mouse antibody (Invitrogen, Catalogue No A11001, 1 in 500 in PBS) and Hoechst 33342 (Sigma, Catalogue No H21492), 1 in 1000 in PBS) for 1 h at RT, prior to washing with PBS containing 0.1% Tween (×4).
Type I collagen immunoreactivity was detected using the INCell 2000 Analyzer (GE Healthcare, INcell 2000) set to excitation and emission wavelengths for DAPI and FITC with laser focus and exposure adjusted to appropriate levels. Images were imported and analysed using Columbus software (Perkin Elmer) and computational algorithms to quantify “total collagen area” and “cell count”.
Data analysis was performed by determining % inhibition values for test compounds relative to the minimum (media only) and maximum responses (TGF-βstimulation) with non-linear regression analysis to determine IC50 values for test compounds.

Consider `CNCc1cc2nc(-c3cc(CS(C)(=O)=O)cc(N4C5CCC4COC5)n3)ccc2[nH]1` [Example 47, ({5-[4-(methanesulfonylmethyl)-6-{3-oxa-8-azabicyclo[3.2.1]octan-8-yl}pyridin-2-yl]-1H-pyrrolo[3,2-b]pyridin-2-yl}methyl)(methyl)amine], for which the IC50 in assay [1] was 3.16 to 316 nM; at mTOR it was 2.51 to 316 nM.
Turning to `CCCC1COCCN1c1cc(CS(C)(=O)=O)cc(-c2ccc3[nH]c(CNC)cc3n2)n1` (stereo not shown) [Example 48, ({5-[4-(methanesulfonylmethyl)-6-(3-propylmorpholin-4-yl)pyridin-2-yl]-1H-pyrrolo[3,2-b]pyridin-2-yl}methyl)(methyl)amine], the IC50 is 3.16 to 316 nM in assay [1] and 39.8 to 1000 nM in assay [2].
